Tests used:
A-549 = assay: cells; conditions: Homo sapiens, A549, 48 h; for GI50: read-out: GI50 A549; for CC50: read-out: LC50 A549; for IC (TGI): read-out: TGI A549
Summary of the method: (§1)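 Colorimetric SRB read (490 nm) on triplicate wells after 48 h at 37 °C, 5% CO2. Dose range 10 to 10^−8 μg/ml; 5×10^3 cells/well pre-attached 18 h.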

LoVo = assay: cells; conditions: Homo sapiens, LoVo, 48 h; for GI50: read-out: GI50 LOVO; for CC50: read-out: LC50 LOVO; for IC (TGI): read-out: TGI LOVO
Summary of the method: as §1

HT-29 = assay: cells; conditions: Homo sapiens, HT-29, 48 h; for GI50: read-out: GI50 HT29; for IC (TGI): read-out: TGI HT29
Summary of the method: as §1

K-562 = assay: Inhibition of cells growth by colorimetric assay (SRB); conditions: Homo sapiens, K562, 48 h; for GI50: read-out: GI50 K562; for CC50: read-out: LC50 K562; for IC (TGI): read-out: TGI K562
Summary of the method: as §1

HeLa = assay: as above; conditions: Homo sapiens, HeLa, 48 h; for GI50: read-out: GI50 HELA; for CC50: read-out: LC50 HELA; for IC (TGI): read-out: TGI HELA
Summary of the method: as §1

DU-145 = assay: as above; conditions: Homo sapiens, DU-145, 48 h; for GI50: read-out: GI50 DU145; for IC (TGI): read-out: TGI DU145
Summary of the method: as §1

PANC-1 = assay: as above; conditions: Homo sapiens, PANC-1, 48 h; for GI50: read-out: GI50 PANC-1; for IC (TGI): read-out: TGI PANC-1
Summary of the method: as §1

HeLa-APL = assay: as above; conditions: Homo sapiens, 48 h; for GI50: read-out: GI50 HELA-APL; for CC50: read-out: LC50 HELA-APL
Summary of the method: as §1

SK-MEL-28 = assay: as above; conditions: Homo sapiens, SK-MEL-28, 48 h; for GI50: read-out: GI50 MEL-28; for CC50: read-out: LC50 MEL-28; for IC (TGI): read-out: TGI MEL-28
Summary of the method: as §1

LNCaP = assay: as above; conditions: Homo sapiens, LNCaP, 48 h; for GI50: read-out: GI50 LNCAP; for CC50: read-out: LC50 LNCAP; for IC (TGI): read-out: TGI LNCAP
Summary of the method: as §1

IGROV-1 = assay: as above; conditions: Homo sapiens, IGROV-1, 48 h; for GI50: read-out: GI50 IGROV; for CC50: read-out: LC50 IGROV; for IC (TGI): read-out: TGI IGROV
Summary of the method: as §1

IGROV-ET = assay: as above; conditions: Homo sapiens, 48 h; for GI50: read-out: GI50 IGROV-ET; for CC50: read-out: LC50 IGROV-ET; for IC (TGI): read-out: TGI IGROV-ET
Summary of the method: as §1

SK-BR-3 = assay: as above; conditions: Homo sapiens, SK-BR-3, 48 h; for GI50: read-out: GI50 SK-BR3; for CC50: read-out: LC50 SK-BR3; for IC (TGI): read-out: TGI SK-BR3
Summary of the method: as §1

LoVo-Dox = assay: as above; conditions: Homo sapiens, 48 h; for GI50: read-out: GI50 LOVO-DOX; for IC (TGI): read-out: TGI LOVO-DOX
Summary of the method: as §1

C=CCN1[C@@H]2c3c(cc(C)c(OC)c3O)C[C@H]1[C@H](C#N)N1C2[C@@H]2SC[C@H](NC(=O)c3cc4ccccc4oc3=O)C(=O)OC[C@H]1c1c3c(c(C)c(OC(C)=O)c12)OCO3 (stereo partly shown) [compound 28]
GI50 (A-549): 0.0525 µM | CC50 (A-549): 2.27 µM | IC (TGI) (A-549): 0.163 µM | GI50 (LoVo): 0.0663 µM | CC50 (LoVo): 0.687 µM | IC (TGI) (LoVo): 0.212 µM | GI50 (HT-29): 0.0765 µM | IC (TGI) (HT-29): 2.05 µM | GI50 (K-562): 0.0283 µM | CC50 (K-562): 2.69 µM | IC (TGI) (K-562): 0.135 µM | GI50 (HeLa): 0.0386 µM | CC50 (HeLa): 0.289 µM | IC (TGI) (HeLa): 0.0755 µM | GI50 (DU-145): 0.0358 µM | IC (TGI) (DU-145): 1.27 µM | GI50 (PANC-1): 0.0592 µM | IC (TGI) (PANC-1): 0.197 µM | GI50 (HeLa-APL): 0.0559 µM | CC50 (HeLa-APL): 0.682 µM | IC (TGI) (HeLa-APL; read-out: TGI HELA-APL): 0.13 µM | GI50 (SK-MEL-28): 0.0568 µM | CC50 (SK-MEL-28): 0.692 µM | IC (TGI) (SK-MEL-28): 0.135 µM | GI50 (LNCaP): 0.0229 µM | CC50 (LNCaP): 0.111 µM | IC (TGI) (LNCaP): 0.0504 µM | GI50 (IGROV-1): 0.049 µM | CC50 (IGROV-1): 1.57 µM | IC (TGI) (IGROV-1): 0.155 µM | GI50 (IGROV-ET): 0.138 µM | CC50 (IGROV-ET): 0.898 µM | IC (TGI) (IGROV-ET): 0.352 µM | GI50 (SK-BR-3): 0.0473 µM | CC50 (SK-BR-3): 1.22 µM | IC (TGI) (SK-BR-3): 0.164 µM | GI50 (LoVo-Dox): 0.362 µM | IC (TGI) (LoVo-Dox): 1.22 µM

C=CCN1[C@@H]2c3c(cc(C)c(OC)c3OC(=O)/C=C/c3ccccc3)C[C@H]1[C@H](C#N)N1C2[C@@H]2SCC(NC(=O)C(F)(F)F)C(=O)OC[C@H]1c1c3c(c(C)c(OC(C)=O)c12)OCO3 (stereo partly shown) [compound 29]
GI50 (A-549): 4.8 µM | CC50 (A-549): 11.4 µM | IC (TGI) (A-549): 11.4 µM | GI50 (LoVo): 2.85 µM | CC50 (LoVo): 11.4 µM | IC (TGI) (LoVo): 11.4 µM | GI50 (HT-29): 11.4 µM | CC50 (HT-29; read-out: LC50 HT29): 11.4 µM | IC (TGI) (HT-29): 11.4 µM | GI50 (K-562): 0.629 µM | CC50 (K-562): 11.4 µM | IC (TGI) (K-562): 3.9 µM | GI50 (HeLa): 6.3 µM | CC50 (HeLa): 11.4 µM | IC (TGI) (HeLa): 11.4 µM | GI50 (DU-145): 2.3 µM | CC50 (DU-145; read-out: LC50 DU145): 11.4 µM | IC (TGI) (DU-145): 7.93 µM | GI50 (PANC-1): 6.55 µM | CC50 (PANC-1; read-out: LC50 PANC-1): 11.4 µM | IC (TGI) (PANC-1): 11.4 µM | GI50 (HeLa-APL): 4.29 µM | CC50 (HeLa-APL): 11.4 µM | GI50 (SK-MEL-28): 3.74 µM | CC50 (SK-MEL-28): 11.4 µM | IC (TGI) (SK-MEL-28): 11.4 µM | GI50 (LNCaP): 0.878 µM | CC50 (LNCaP): 11.4 µM | IC (TGI) (LNCaP): 6.07 µM | GI50 (IGROV-1): 2.19 µM | CC50 (IGROV-1): 11.4 µM | IC (TGI) (IGROV-1): 11.4 µM | GI50 (IGROV-ET): 3.12 µM | CC50 (IGROV-ET): 11.4 µM | IC (TGI) (IGROV-ET): 11.4 µM | GI50 (SK-BR-3): 0.889 µM | CC50 (SK-BR-3): 11.4 µM | IC (TGI) (SK-BR-3): 7.98 µM | GI50 (LoVo-Dox): 4.09 µM | CC50 (LoVo-Dox; read-out: LC50 LOVO-DOX): 11.4 µM | IC (TGI) (LoVo-Dox): 11.4 µM

— patent US7767659B2, “Synthesis of naturally occurring ecteinascidins and related compounds” (Pharma Mar, S.A., priority 2002, dated 2010)
